Activity calls are given as the source filed them. The rule behind the calls is not given here.
Columns and labels:
[1] = target: T1, Bromodomain-containing protein 4 (Homo sapiens, UniProt O60885); assay: Inhibition of BRD4-BD2 (unknown origin) preincubated for 30 mins followed by substrate addition and measured after 3 hr by HTRF
[2] = target: T1, Bromodomain-containing protein 4; assay: Protac activity at BRD4 short isoform in human MV4-11 cells at 100 nM for 24 hrs by immunoblot analysis; type: cell-based
[3] = target: T1, Bromodomain-containing protein 4; assay: Inhibition of BRD4-BD1 (unknown origin) preincubated for 30 mins followed by substrate addition and measured after 3 hr by HTRF assay
[4] = target: Bromodomain-containing protein 3 (Homo sapiens) (UniProt Q15059); assay: Protac activity at BRD3 in human MV4-11 cells at 100 nM measured after 4 hrs by immunoblot analysis; type: cell-based
[5] = target: Bromodomain-containing protein 2 (Homo sapiens) (UniProt P25440); assay: Protac activity at BRD2 in human MV4-11 cells at 100 nM measured after 4 hrs by immunoblot analysis; type: cell-based
[6] = target: Bromodomain-containing protein 2 (Homo sapiens) (UniProt P25440); assay: Protac activity at BRD2 in human MV4-11 cells at 100 nM measured after 24 hrs by immunoblot analysis; type: cell-based
[7] = test system: MV4-11; assay: Anti-proliferative activity in human MV4-11 cells assessed as downregulation of c-myc levels at 100 nM incubated for 24 hrs by western blot analysis; type: functional, cell-based
[8] = test system: MV4-11; assay: Cell cycle arrest in human MV4-11 cells assessed as accumulation at G2/M phase at 0.1 uM for 24 hrs by PI/RNase staining based flow cytometry analysis; type: functional
[9] = target: Bromodomain-containing protein 3 (Homo sapiens) (UniProt Q15059); assay: Protac activity at BRD3 in human MV4-11 cells at 100 nM measured after 24 hrs by immunoblot analysis; type: cell-based
[10] = test system: MV4-11; assay: Anti-proliferative activity in human MV4-11 cells assessed as downregulation of c-myc levels at 10 to 1000 nM incubated for 4 hrs by western blot analysis; type: functional, cell-based; settings: dose 10-1000 nM
[11] = test system: MV4-11; assay: Antiproliferative activity against human MV4-11 cells incubated for 72 hrs by CCK8 assay; type: functional, cell-based; settings: MV4-11, 72 h
[12] = target: T1, Bromodomain-containing protein 4; assay: Protac activity at BRD4 short isoform in human MV4-11 cells at 100 nM for 12 hrs by immunoblot analysis; type: cell-based

Chain of Bromodomain-containing protein 3 (Homo sapiens) (Q15059 2-726 limits assumed): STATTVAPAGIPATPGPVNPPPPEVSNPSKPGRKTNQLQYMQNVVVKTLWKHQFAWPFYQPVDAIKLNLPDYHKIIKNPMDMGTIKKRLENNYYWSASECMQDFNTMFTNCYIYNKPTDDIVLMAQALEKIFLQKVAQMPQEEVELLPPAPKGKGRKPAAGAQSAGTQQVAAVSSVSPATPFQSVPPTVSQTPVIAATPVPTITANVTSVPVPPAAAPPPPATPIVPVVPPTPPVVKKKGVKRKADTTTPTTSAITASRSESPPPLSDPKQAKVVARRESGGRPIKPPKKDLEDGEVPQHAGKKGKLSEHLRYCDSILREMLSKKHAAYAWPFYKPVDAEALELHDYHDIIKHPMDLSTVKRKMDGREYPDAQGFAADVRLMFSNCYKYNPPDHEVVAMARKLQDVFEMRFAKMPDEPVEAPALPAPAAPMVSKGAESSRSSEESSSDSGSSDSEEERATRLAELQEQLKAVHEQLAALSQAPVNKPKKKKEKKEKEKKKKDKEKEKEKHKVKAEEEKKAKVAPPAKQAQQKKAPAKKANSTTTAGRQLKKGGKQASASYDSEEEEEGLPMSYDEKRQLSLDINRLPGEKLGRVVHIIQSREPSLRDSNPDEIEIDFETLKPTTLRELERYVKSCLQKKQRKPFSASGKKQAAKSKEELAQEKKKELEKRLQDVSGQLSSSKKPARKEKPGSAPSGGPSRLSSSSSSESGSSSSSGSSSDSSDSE
Chain of Bromodomain-containing protein 2 (Homo sapiens) (P25440 whole entry, looked up): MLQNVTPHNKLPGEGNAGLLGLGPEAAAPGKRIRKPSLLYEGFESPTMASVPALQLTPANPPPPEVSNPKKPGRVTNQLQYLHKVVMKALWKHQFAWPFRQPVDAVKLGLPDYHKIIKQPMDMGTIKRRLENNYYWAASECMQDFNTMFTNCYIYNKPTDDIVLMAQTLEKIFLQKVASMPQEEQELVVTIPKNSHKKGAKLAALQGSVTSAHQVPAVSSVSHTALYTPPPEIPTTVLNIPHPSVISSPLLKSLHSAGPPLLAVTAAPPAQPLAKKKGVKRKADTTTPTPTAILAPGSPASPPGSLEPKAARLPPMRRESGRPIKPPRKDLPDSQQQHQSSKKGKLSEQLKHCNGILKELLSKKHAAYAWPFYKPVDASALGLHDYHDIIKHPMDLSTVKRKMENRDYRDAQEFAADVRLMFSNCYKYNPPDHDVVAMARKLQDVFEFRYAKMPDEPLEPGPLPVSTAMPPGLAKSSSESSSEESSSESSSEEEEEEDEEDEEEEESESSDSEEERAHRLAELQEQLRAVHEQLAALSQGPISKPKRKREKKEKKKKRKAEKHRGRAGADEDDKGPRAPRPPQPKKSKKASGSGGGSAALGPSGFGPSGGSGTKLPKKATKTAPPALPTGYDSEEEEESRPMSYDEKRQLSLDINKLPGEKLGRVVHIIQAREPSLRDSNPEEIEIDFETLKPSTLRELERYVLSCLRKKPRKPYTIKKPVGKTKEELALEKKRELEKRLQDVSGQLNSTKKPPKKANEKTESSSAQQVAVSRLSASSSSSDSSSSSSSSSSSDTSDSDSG

| SMILES | IC50 [1] [nM] | Activity [2] | IC50 [3] [nM] | Activity [4] | Activity [5] | Activity [6] | Activity [9] | IC50 [11] [nM] | Activity [12] | Activity [7] | Activity [8] | Activity [10] |
| --- | --- | --- | --- | --- | --- | --- | --- | --- | --- | --- | --- | --- |
| C=C(C)c1ccc(OC(C)C)c(-c2cn(C)c(=O)c3[nH]c(C(=O)NCc4ccc(C(=O)NCCCCNc5cccc6c5C(=O)N(C5CCC(=O)NC5=O)C6=O)cc4)cc23)c1 (stereo unspecified) | 101 | Active | 119 | – | – | – | – | – | – | – | – | – |
| Cc1sc2c(c1C)C(c1ccc(Cl)cc1)=N[C@@H](CC(=O)NCCCCCCCCNC(=O)COc1cccc3c1C(=O)N(C1CCC(=O)NC1=O)C3=O)c1nnc(C)n1-2 (stereo partly specified) | – | – | – | Active | Active | Active | Active | 10.3 | – | Active | Active | Active |
| Cn1cc(-c2ccccc2Oc2ccccc2)c2cc(C(=O)NCCCCNc3cccc4c3C(=O)N(C3CCC(=O)NC3=O)C4=O)[nH]c2c1=O (stereo unspecified) | 84.9 | Active | 472 | Active | Active | Active | Active | – | – | – | – | – |
| Cn1cc(-c2ccccc2)c2cc(C(=O)NCc3ccc(C(=O)NCCCCNc4cccc5c4C(=O)N(C4CCC(=O)NC4=O)C5=O)cc3)[nH]c2c1=O (stereo unspecified) | 296 | – | 99.8 | – | – | – | – | – | – | – | – | – |
| COc1cc(C(=O)NCCOCCOCCOCCNC(=O)C[C@@H]2N=C(c3ccc(Cl)cc3)c3c(sc(C)c3C)-n3c(C)nnc32)ccc1NC(=O)[C@@H]1N[C@@H](CC(C)(C)C)[C@](C#N)(c2ccc(Cl)cc2F)[C@H]1c1cccc(Cl)c1F | – | Active | – | – | – | – | – | – | – | – | – | – |
| Cn1cc(-c2ccccc2OC2CC2)c2cc(C(=O)NCc3ccc(C(=O)NCCCCNc4cccc5c4C(=O)N(C4CCC(=O)NC4=O)C5=O)cc3)[nH]c2c1=O (stereo unspecified) | 96.4 | Active | 54.3 | – | – | – | – | – | Active | – | – | – |
| CCNC(=O)c1cc2c(-c3cc(C(C)(C)O)ccc3Oc3c(C)cc(F)cc3C)cn(C)c(=O)c2[nH]1 [ABBV-744] | – | – | – | – | – | – | – | 153 | – | – | – | – |
| CC(C)Oc1ccccc1-c1cn(C)c(=O)c2[nH]c(C(=O)NCc3ccc(C(=O)NCCCCNc4cccc5c4C(=O)N(C4CCC(=O)NC4=O)C5=O)cc3)cc12 (stereo unspecified) | 91.5 | Active | 83.7 | – | – | – | – | – | – | – | – | – |

Continued, in another order:

| IC50 [1] [nM] | Activity [2] | IC50 [3] [nM] | Activity [4] | Activity [5] | Activity [6] | Activity [9] | IC50 [11] [nM] | Activity [12] | SMILES | Activity [7] | Activity [8] | Activity [10] |
| --- | --- | --- | --- | --- | --- | --- | --- | --- | --- | --- | --- | --- |
| 35.7 | Active | 332 | Active | Active | Active | Active | – | – | Cn1cc(-c2ccccc2Oc2ccccc2)c2cc(C(=O)NCCCCCCC(=O)NCCCCNc3cccc4c3C(=O)N(C3CCC(=O)NC3=O)C4=O)[nH]c2c1=O (stereo unspecified) | – | – | – |
| 13.9 | – | 24.6 | – | – | – | – | – | – | CC(C)Oc1ccc(C(C)(C)O)cc1-c1cn(C)c(=O)c2[nH]c(C(=O)NCc3ccc(C(=O)NCCCCNc4cccc5c4C(=O)N(C4CCC(=O)NC4=O)C5=O)cc3)cc12 (stereo unspecified) | – | – | – |
| 3.82 | – | 29.5 | – | – | – | – | – | – | Cn1cc(-c2cc(C(C)(C)O)ccc2Oc2ccccc2)c2cc(C(=O)NCc3ccc(C(=O)NCCCCNc4cccc5c4C(=O)N(C4CCC(=O)NC4=O)C5=O)cc3)[nH]c2c1=O (stereo unspecified) | – | – | – |
| 7.79 | – | 22.7 | – | – | – | – | – | – | Cn1cc(-c2cc(C(C)(C)O)ccc2OC2CC2)c2cc(C(=O)NCc3ccc(C(=O)NCCCCNc4cccc5c4C(=O)N(C4CCC(=O)NC4=O)C5=O)cc3)[nH]c2c1=O (stereo unspecified) | – | – | – |
| 38.8 | Active | 278 | Active | Active | Active | Active | – | – | Cn1cc(-c2ccccc2Oc2ccccc2)c2cc(C(=O)NCCCCCC(=O)NCCCCNc3cccc4c3C(=O)N(C3CCC(=O)NC3=O)C4=O)[nH]c2c1=O (stereo unspecified) | – | – | – |
| 27.2 | Active | 34.6 | Active | Active | Active | Active | – | Active | Cn1cc(-c2ccccc2Oc2ccccc2)c2cc(C(=O)NCc3ccc(C(=O)NCCCCNc4cccc5c4C(=O)N(C4CCC(=O)NC4=O)C5=O)cc3)[nH]c2c1=O (stereo unspecified) | – | – | – |
| 74.1 | Active | 241 | – | – | – | – | – | – | C=C(C)c1ccc(Oc2ccccc2)c(-c2cn(C)c(=O)c3[nH]c(C(=O)NCc4ccc(C(=O)NCCCCNc5cccc6c5C(=O)N(C5CCC(=O)NC5=O)C6=O)cc4)cc23)c1 (stereo unspecified) | – | – | – |
| 73 | – | 45.4 | – | – | – | – | – | – | Cn1cc(-c2cccc(C(C)(C)O)c2)c2cc(C(=O)NCc3ccc(C(=O)NCCCCNc4cccc5c4C(=O)N(C4CCC(=O)NC4=O)C5=O)cc3)[nH]c2c1=O (stereo unspecified) | – | – | – |
| 24.3 | Active | 185 | Active | Active | Active | Active | – | – | Cn1cc(-c2ccccc2Oc2ccccc2)c2cc(C(=O)NCCCCC(=O)NCCCCNc3cccc4c3C(=O)N(C3CCC(=O)NC3=O)C4=O)[nH]c2c1=O (stereo unspecified) | – | – | – |
| 39.4 | Active | 441 | Active | Active | Active | Active | – | – | Cn1cc(-c2ccccc2Oc2ccccc2)c2cc(C(=O)NCCCCCCNc3cccc4c3C(=O)N(C3CCC(=O)NC3=O)C4=O)[nH]c2c1=O (stereo unspecified) | – | – | – |
